Results as given in patent publication US20230085307A1, “PYRIDAZINONE COMPOUND AND HERBICIDE” (NISSAN CHEMICAL CORPORATION, priority 2019, published 2023).

Columns and labels:
barnyard grass [1] = assay: Test Example 3: herbicidal effect by foliage application, Wagner pot (Table 18, symbol H); type: in vivo, barnyard grass (Echinochloa crus-galli); settings: amount of applied herbicide 320 g/ha
How it was run: (§1)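 Plants were sown in alluvial soil held under 0.1–0.5 cm standing water and grown 14 days in a greenhouse at 25–30 °C. An emulsifiable formulation, water-diluted to the set dose, was then sprayed onto the foliage, and effects were scored three weeks later using previously defined criteria.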

Chinese sprangletop = assay: Test Example 3: herbicidal effect by foliage application, Wagner pot (Table 18, symbol D); type: in vivo, chinese sprangletop (Leptochloa chinensis); settings: amount of applied herbicide 320 g/ha
How it was run: as §1

rice flat sedge = assay: Test Example 3: herbicidal effect by foliage application, Wagner pot (Table 18, symbol E); type: in vivo, rice flat sedge (Cyperus iria); settings: amount of applied herbicide 320 g/ha
How it was run: as §1

southern crabgrass [2] = assay: Test Example 4: herbicidal effect by soil treatment (Table 19, symbol F); type: in vivo, southern crabgrass (Digitaria ciliaris); settings: amount of applied herbicide 320 g/ha
How it was run: (§2)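 Seeds were sown in sterilized diluvial soil and covered with about 1.5 cm of soil. An emulsion formulation diluted with water to a predetermined herbicide amount was sprayed evenly onto the soil surface. Plants grew in a greenhouse at 25° C. to 30° C., and the effect was scored three weeks after application using criteria from an earlier test.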

green foxtail [3] = assay: Test Example 4: herbicidal effect by soil treatment (Table 19, symbol G); type: in vivo, green foxtail (Setaria viridis); settings: amount of applied herbicide 320 g/ha
How it was run: as §2

barnyard grass [4] = assay: Test Example 4: herbicidal effect by soil treatment (Table 19, symbol H); type: in vivo, barnyard grass (Echinochloa crus-galli); settings: amount of applied herbicide 320 g/ha
How it was run: as §2

wild oat [5] = assay: Test Example 4: herbicidal effect by soil treatment (Table 19, symbol I); type: in vivo, wild oat (Avena fatua); settings: amount of applied herbicide 320 g/ha
How it was run: as §2

blackgrass [6] = assay: Test Example 4: herbicidal effect by soil treatment (Table 19, symbol J); type: in vivo, blackgrass (Alopecurus myosuroides); settings: amount of applied herbicide 320 g/ha
How it was run: as §2

Italian ryegrass [7] = assay: Test Example 4: herbicidal effect by soil treatment (Table 19, symbol K); type: in vivo, Italian ryegrass (Lolium multiflorum); settings: amount of applied herbicide 320 g/ha
How it was run: as §2

windgrass [8] = assay: Test Example 4: herbicidal effect by soil treatment (Table 19, symbol L); type: in vivo, windgrass (Apera spica-venti); settings: amount of applied herbicide 320 g/ha
How it was run: as §2

velvetleaf [9] = assay: Test Example 4: herbicidal effect by soil treatment (Table 19, symbol M); type: in vivo, velvetleaf (Abutilon theophrasti); settings: amount of applied herbicide 320 g/ha
How it was run: as §2

redroot pigweed = assay: Test Example 4: herbicidal effect by soil treatment (Table 19, symbol N); type: in vivo, redroot pigweed (Amaranthus retroflexus); settings: amount of applied herbicide 320 g/ha
How it was run: as §2

lambsquarters [10] = assay: Test Example 4: herbicidal effect by soil treatment (Table 19, symbol O); type: in vivo, lambsquarters (Chenopodium album); settings: amount of applied herbicide 320 g/ha
How it was run: as §2

chickweed = assay: Test Example 4: herbicidal effect by soil treatment (Table 19, symbol P); type: in vivo, common chickweed (Stellaria media); settings: amount of applied herbicide 320 g/ha
How it was run: as §2

false cleavers = assay: Test Example 4: herbicidal effect by soil treatment (Table 19, symbol Q); type: in vivo, false cleavers (Galium spurium); settings: amount of applied herbicide 320 g/ha
How it was run: as §2

persian speedwell [11] = assay: Test Example 4: herbicidal effect by soil treatment (Table 19, symbol R); type: in vivo, Persian speedwell (Veronica persica); settings: amount of applied herbicide 320 g/ha
How it was run: as §2

southern crabgrass [12] = assay: Test Example 5: herbicidal effect by foliage application, plastic box (Table 20, symbol F); type: in vivo, southern crabgrass (Digitaria ciliaris); settings: foliage application, 320 g/ha, three weeks after application
How it was run: (§3)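 Plants sown in sterilized diluvial soil and grown 14 days in a greenhouse at 25° C to 30° C, then sprayed on the foliage with the compound's emulsion diluted in water to a predetermined herbicide amount. Injury to weeds and crops scored three weeks after application on a visual rating scale.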

green foxtail [13] = assay: Test Example 5: herbicidal effect by foliage application, plastic box (Table 20, symbol G); type: in vivo, green foxtail (Setaria viridis); settings: foliage application, 320 g/ha, three weeks after application
How it was run: as §3

barnyard grass [14] = assay: Test Example 5: herbicidal effect by foliage application, plastic box (Table 20, symbol H); type: in vivo, barnyard grass (Echinochloa crus-galli); settings: foliage application, 320 g/ha, three weeks after application
How it was run: as §3

wild oat [15] = assay: Test Example 5: herbicidal effect by foliage application, plastic box (Table 20, symbol I); type: in vivo, wild oat (Avena fatua); settings: foliage application, 320 g/ha, three weeks after application
How it was run: as §3

blackgrass [16] = assay: Test Example 5: herbicidal effect by foliage application, plastic box (Table 20, symbol J); type: in vivo, blackgrass (Alopecurus myosuroides); settings: foliage application, 320 g/ha, three weeks after application
How it was run: as §3

Italian ryegrass [17] = assay: Test Example 5: herbicidal effect by foliage application, plastic box (Table 20, symbol K); type: in vivo, Italian ryegrass (Lolium multiflorum); settings: foliage application, 320 g/ha, three weeks after application
How it was run: as §3

windgrass [18] = assay: Test Example 5: herbicidal effect by foliage application, plastic box (Table 20, symbol L); type: in vivo, windgrass (Apera spica-venti); settings: foliage application, 320 g/ha, three weeks after application
How it was run: as §3

velvetleaf [19] = assay: Test Example 5: herbicidal effect by foliage application, plastic box (Table 20, symbol M); type: in vivo, velvetleaf (Abutilon theophrasti); settings: foliage application, 320 g/ha, three weeks after application
How it was run: as §3

lambsquarters [20] = assay: Test Example 5: herbicidal effect by foliage application, plastic box (Table 20, symbol O); type: in vivo, lambsquarters (Chenopodium album); settings: foliage application, 320 g/ha, three weeks after application
How it was run: as §3

persian speedwell [21] = assay: Test Example 5: herbicidal effect by foliage application, plastic box (Table 20, symbol R); type: in vivo, Persian speedwell (Veronica persica); settings: foliage application, 320 g/ha, three weeks after application
How it was run: as §3

With Cc1nn(C)c(=O)c(-c2c(-c3ccc(SC(C)C)cc3)oc3ccc(F)cc23)c1O [9-041] the “Herbicidal effect on H (barnyard grass), foliage application” value (barnyard grass [1]) was 5 (Herbicidal rate of 90% or more (almost completely withered)), the “Herbicidal effect on D (Chinese sprangletop), foliage application” value (Chinese sprangletop) was 2 (Herbicidal rate of 20% or more and less than 40%) and the “Herbicidal effect on E (rice flat sedge), foliage application” value (rice flat sedge) was 5 (Herbicidal rate of 90% or more (almost completely withered)). The “F: southern crabgrass, herbicidal effect grade” value (southern crabgrass [2]) was 3 (Herbicidal rate of 40% or more and less than 70%), the “G: green foxtail, herbicidal effect grade” value (green foxtail [3]) was 4 (Herbicidal rate of 70% or more and less than 90%) and the “H: barnyard grass, herbicidal effect grade” value (barnyard grass [4]) was 1 (Herbicidal rate of 5% or more and less than 20%). The “I: wild oat, herbicidal effect grade” value (wild oat [5]) was 0 (Herbicidal rate of 5% or less (almost no effect)), the “J: blackgrass, herbicidal effect grade” value (blackgrass [6]) was 0 (Herbicidal rate of 5% or less (almost no effect)) and the “K: Italian ryegrass, herbicidal effect grade” value (Italian ryegrass [7]) was 5 (Herbicidal rate of 90% or more (almost completely withered)). For the same molecule, the “L: windgrass, herbicidal effect grade” value (windgrass [8]) was 0 (Herbicidal rate of 5% or less (almost no effect)), the “M: velvetleaf, herbicidal effect grade” value (velvetleaf [9]) was 1 (Herbicidal rate of 5% or more and less than 20%) and the “N: redroot pigweed, herbicidal effect grade” value (redroot pigweed) was 5 (Herbicidal rate of 90% or more (almost completely withered)). For the same molecule, the “O: lambsquarters, herbicidal effect grade” value (lambsquarters [10]) was 4 (Herbicidal rate of 70% or more and less than 90%), the “P: chickweed, herbicidal effect grade” value (chickweed) was 1 (Herbicidal rate of 5% or more and less than 20%) and the “Q: false cleavers, herbicidal effect grade” value (false cleavers) was 0 (Herbicidal rate of 5% or less (almost no effect)). The “R: persian speedwell, herbicidal effect grade” value (persian speedwell [11]) was 4 (Herbicidal rate of 70% or more and less than 90%), the “herbicidal effect on southern crabgrass (F)” value (southern crabgrass [12]) was 0 (Herbicidal rate of 5% or less (almost no effect)) and the “herbicidal effect on green foxtail (G)” value (green foxtail [13]) was 4 (Herbicidal rate of 70% or more and less than 90%). For the same molecule, the “herbicidal effect on barnyard grass (H)” value (barnyard grass [14]) was 3 (Herbicidal rate of 40% or more and less than 70%), the “herbicidal effect on wild oat (I)” value (wild oat [15]) was 3 (Herbicidal rate of 40% or more and less than 70%) and the “herbicidal effect on blackgrass (J)” value (blackgrass [16]) was 3 (Herbicidal rate of 40% or more and less than 70%). The “herbicidal effect on Italian ryegrass (K)” value (Italian ryegrass [17]) was 5 (Herbicidal rate of 90% or more (almost completely withered)), the “herbicidal effect on windgrass (L)” value (windgrass [18]) was 4 (Herbicidal rate of 70% or more and less than 90%) and the “herbicidal effect on velvetleaf (M)” value (velvetleaf [19]) was 3 (Herbicidal rate of 40% or more and less than 70%). The “herbicidal effect on lambsquarters (O)” value (lambsquarters [20]) was 4 (Herbicidal rate of 70% or more and less than 90%) and the “herbicidal effect on persian speedwell (R)” value (persian speedwell [21]) was 5 (Herbicidal rate of 90% or more (almost completely withered)).
